Source: paper PMC7016953 (Cells, 2020)

Tests used:
parental HEK293 cells = assay: [Ca2+]i response in un-transfected parental HEK293 cells; type: cell-based, human
Method: All fluorometric Ca^2+ assays were done in (4-(2-hydroxyethyl)-1-piperazineethanesulfonic acid) (HEPES)-buffered saline (HBS), containing 132 mM NaCl, 6 mM KCl, 1 mM MgCl2, 1 mM CaCl2, 5.5 mM D-glucose, 10 mM HEPES, and 0.035% bovine serum albumin (BSA) adjusted to pH 7.4 with NaOH. For measurements in Ca^2+-free bath solutions, a modified HBS without CaCl2 was supplemented with 200 µM ethylene glycol-bis(β-aminoethyl ether)-N,N,N′,N′-tetraacetic acid (EGTA).
The primary compound screen and the generation of concentration response curves in HEK293 cells or in PC12 cells were performed by using a custom-made fluorescence plate imager built into a robotic liquid handling station equipped with a 96-tip multichannel head (Freedom Evo 150, Tecan, Männedorf, Switzerland) as described previously. To this end, trypsinized cell suspensions were loaded with 4 µM fluo-4/AM (Invitrogen, Thermo Fisher Scientific, Waltham, MA, U.S.A.) in cell culture medium for 30 min at 37 °C. After brief centrifugation, cells were resuspended in HBS and dispensed into black pigmented, clear-bottom 384-well plates (Greiner µClear, Frickenhausen, Germany). Plates were mounted on the imager, and fluorescence signals were recorded with a cooled Zyla 5.5 camera (Andor, Belfast, UK) through a 515 nm long pass filter. The image acquisition was controlled by the µManager software (http://micro-manager.org), and excitation with a LED array (470 nm) was synchronized by the camera trigger output. After baseline recording for about 60 s, the compound libraries or serial dilutions of activators or inhibitors were added to the cells by the liquid handling device. When inhibitory potencies were evaluated, a second pipetting step with the respective reference agonist was performed. Fluorescence intensities were calculated from image stacks for each well with ImageJ (National Institutes of Health, Bethesda, MD, U.S.A.), corrected for background signals, and normalized to the initial intensities (F/F0). […]

mTRPC4ß-YFP = system: T1, mTRPC4ß-YFP; assay: Selectivity profiling, fluo-4 [Ca2+]i response, TRPC4; type: cell-based, mouse; settings: 100 µM
T1 construct: expressed in transfected cells
Method: (§1) Human embryonic kidney 293 (HEK293) cells were stably transfected with expression plasmids that encode hTRPC3-YFP, hTRPC6-YFP, hTRPC7-YFP, mTRPC4ß-YFP, rTRPV1-CFP, rTRPV2-YFP, rTRPV3-YFP, mTRPV4-YFP, or hTRPM2 as previously described. Cell lines were cultured in Earle’s minimum essential medium (MEM; Sigma, Munich, Germany), supplemented with 10% fetal calf serum (Gibco Thermo Fisher Scientific, Darmstadt, Germany), 2 mM L-glutamine, and required concentrations of geneticin in a range of 0.4–1 mg/mL. A HEK293mTRPC5-YFP cell line was maintained and induced as described before. […] For electrophysiological and single cell [Ca^2+]i imaging experiments, PC12 cells were plated onto 25 mm poly-L-lysine-coated glass coverslips and measured 24–48 h after seeding. […]
(§2) The primary compound screen and the generation of concentration response curves in HEK293 cells or in PC12 cells were performed by using a custom-made fluorescence plate imager built into a robotic liquid handling station equipped with a 96-tip multichannel head (Freedom Evo 150, Tecan, Männedorf, Switzerland) as described previously. […] Plates were mounted on the imager, and fluorescence signals were recorded with a cooled Zyla 5.5 camera (Andor, Belfast, UK) through a 515 nm long pass filter. […] When inhibitory potencies were evaluated, a second pipetting step with the respective reference agonist was performed. […]

mTRPC5-YFP = system: T2, mTRPC5-YFP; assay: Selectivity profiling, fluo-4 [Ca2+]i response, TRPC5; type: cell-based, mouse; settings: 100 µM
T2 construct: expressed in transfected cells
Method: as §1, §2

hTRPM2 = system: T3, hTRPM2; assay: Selectivity profiling, fluo-4 [Ca2+]i response, TRPM2; type: cell-based, human; settings: 100 µM
T3 construct: expressed in transfected cells
Method: as §1, §2

rTRPV3-YFP = system: T4, rTRPV3-YFP; assay: Selectivity profiling, fluo-4 [Ca2+]i response, TRPV3; type: cell-based, rat; settings: 100 µM
T4 construct: expressed in transfected cells
Method: as §1, §2

mTRPV4-YFP = system: T5, mTRPV4-YFP; assay: Selectivity profiling, fluo-4 [Ca2+]i response, TRPV4; type: cell-based, mouse; settings: 100 µM
T5 construct: expressed in transfected cells
Method: as §1, §2

TRPC6 = system: T6, TRPC6; assay: Microfluorometric single-cell [Ca2+]i analysis, fura-2-loaded HEK cells stably expressing TRPC6; type: cell-based, human; settings: 50 µM, standard bath 1 mM Ca2+
T6 construct: expressed in transfected cells
Method: The microfluorometric single-cell [Ca^2+]i analysis was performed on an inverted epifluorescence microscope (Carl Zeiss, Jena, Germany) and calibrated as described. Cells were grown on 25 mm coverslips and loaded with 4 µM fura-2/AM (AAT Bioquest, Sunnyvale, CA, U.S.A.) in HBS containing 0.2% BSA for 30 min at 37 °C. […] Experiments were performed either in standard bath solution, containing 1 mM Ca^2+ (black lines and bars), or in a nominally Ca^2+-free HBS buffer, supplemented with 200 µM EGTA (grey lines and bars). Time courses of averaged responses (left), and statistical analysis of 6–11 independent imaging experiments with means and S.D. (right) are shown. Significant differences (p < 0.05, Student´s t-test with paired data: #, with unpaired data: *) are marked for the indicated comparisons; n.s.: difference is statistically not significant.

In the case of `C[C@@H]1CC[C@H]2[C@@H](C)C(=O)O[C@@H]3O[C@@]4(C)CC[C@@H]1[C@]32OO4` [artemisinin], the “response of un-transfected parental HEK293 cells” value (parental HEK293 cells; concentrations up to 50 µM) is reported as “no response”, the “[Ca2+]i signals in parental HEK293 cells” value (parental HEK293 cells; single-cell analysis, followed by carbachol) is reported as “does not induce [Ca^2+]i signals” and the “[Ca2+]i response, TRPC4” value (mTRPC4ß-YFP) is reported as “none of the cell lines responded”. The “[Ca2+]i response, TRPC5” value (mTRPC5-YFP) was “none of the cell lines responded”, the “[Ca2+]i response, TRPM2” value (hTRPM2) was “none of the cell lines responded” and the “[Ca2+]i response, TRPV3” value (rTRPV3-YFP) was “none of the cell lines responded”. For the same compound, the “[Ca2+]i response, TRPV4” value (mTRPV4-YFP) was “none of the cell lines responded” and the “[Ca2+]i response in TRPC6-expressing cells” value (TRPC6) was “remained unaffected”.
